“Also recorded” adds a separate entry of the source.
Tests used:
brain tissue = assay: in vivo selection of brain-binding phage-displayed peptides by panning in mice; set-up: species or system BALB/c mice; conditions: phage library injected intravenously, 30 min to 1 hour circulation, brain tissue recovered, four rounds
Description: FIG. 1 provides the scheme for selection of tissue specific phage in vivo. In this example, candidate brain-binding peptides were selected by panning in BALB/c mice. In round one of selection, the phage library was injected intravenously. After thirty minutes of circulation, the mice were euthanized by carbon dioxide inhalation, perfused with 60 ml of ice cold PBS via the left ventricle, and brain tissue was recovered from the animals. The tissue was minced into small pieces and rinsed repeated in PBS, followed by homogenization in lysis buffer. The tissue homogenate was then incubated with fresh E coli cells and the phage present allowed to infect and lyse the bacteria. Phage were recovered by polyethylene glycol precipitation of the lysate. In subsequent rounds, the phage purified from brain tissues recovered in the previous round was injected intravenously, and tissue was recovered after thirty to sixty minutes of circulation. After the last round, the phages were plated on a lawn of bacteria and a number of pliage plaques were isolated and the DNA sequenced. Of these, a certain percentage represented the dominant selected clone.
To remove unbound, non-specific phage, from the parenchyma of the tissue, the screening protocol of Example 2 was modified. After intravenous administration, the phage were left in circulation for 1 hour (30 minutes in Example 2) to allow more phage clones with CNS binding affinity to reach their target. CNS tissue samples were then homogenized in TBS buffer instead of the lysis buffer which was used at this step previously. Tissue homogenates were pelleted by centrifugation and the supernatant was discarded. The pellet was washed two more times in TBS to remove unbound phage. The pellet was re-homogenized in lysis buffer and the remainder of the selection protocol was completed as described in Example 2. The following brain specific peptides were determined: […]

skeletal muscle = conditions: as described in U.S. Pat. No. 6,329,501; cited from earlier work

## LPHQNNR [Leu-Pro-His-Gln-Asn-Asn-Arg, brain specific peptide selected by in vivo phage display]
Brain tissue
  binding to brain: specific for binding to the brain

## LPLTPLP [Leu-Pro-Leu-Thr-Pro-Leu-Pro, brain specific peptide selected by in vivo phage display]
Brain tissue
  binding to brain: specific for binding to the brain

## SSHTISF [Ser-Ser-His-Thr-Ile-Ser-Phe, brain specific peptide selected by in vivo phage display]
Brain tissue
  binding to brain: specific for binding to the brain

## GETRAPL [Gly-Glu-Thr-Arg-Ala-Pro-Leu]
Skeletal muscle
  binding to skeletal muscle: capable of binding to skeletal muscle; also recorded: also binds skeletal muscle
Brain tissue
  binding to brain: binding to brain

## QPTASLT [Gln-Pro-Thr-Ala-Ser-Leu-Thr, brain specific peptide selected by in vivo phage display]
Brain tissue
  binding to brain: specific for binding to the brain

## LFTPPVL [Leu-Phe-Thr-Pro-Pro-Val-Leu, brain specific peptide selected by in vivo phage display]
Brain tissue
  binding to brain: specific for binding to the brain

— patent US6399575B1, “Methods and compositions for targeting compounds to the central nervous system” (Auburn University, priority 1998, dated 2002)
